# Test results published in the SangsterLogP compilation.
# Test: method code G-GLC, from DOI: 10.1021/es00162a015, PMID: 19995068
row,Compound,logP
1,Cc1ccc(-c2ccccc2)cc1,4.63
2,Brc1c(Br)c(Br)c(-c2c(Br)c(Br)c(Br)c(Br)c2Br)c(Br)c1Br,8.58
3,Clc1ccc2oc3ccc(Cl)cc3c2c1,5.44
4,Brc1ccc(-c2ccc(Br)cc2)cc1,5.72
5,Clc1c(Cl)c(Cl)c2c(c1Cl)Oc1ccccc1O2,6.2
6,Brc1ccccc1-c1ccccc1,4.59
7,Brc1ccc(Br)c(-c2cc(Br)c(Br)cc2Br)c1,7.1
8,Cc1ccc(-c2ccc(C)cc2)cc1,5.09
9,Brc1ccc(-c2ccccc2)cc1,4.96
10,Clc1ccc2c(c1)Oc1ccccc1O2,4.94
11,Brc1cccc(-c2ccccc2)c1,4.85
